Assay results from PubChem BioAssay AID256 (DTP/NCI, 2004).
Values joined by “and” are separate entries in the source; they are usually repeats but may differ in a detail not shown here. Equal values may be shown once. Toxic doses and inconclusive results are not listed.

Tested on: CD2F1 mice, L1210 leukemia ip, survival T/C
Assay: NCI In Vivo Anticancer Drug Screen. Data for tumor model L1210 Leukemia (intraperitoneal) in CD2F1 (CDF1) mice
Details: higher = longer survival
Summary of the method: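 Compound-dosed mice with transplantable tumor versus matched vehicle controls; endpoint ratio T/C reported.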

[1] = endpoint: mean survival time, dose: 100.0 mg/kg/injection, schedule: Q04DX003 (ip), vehicle: saline with Tween-80
[2] = endpoint: mean survival time, dose: 200.0 mg/kg/injection, schedule: Q04DX003 (ip), vehicle: saline with Tween-80
[3] = endpoint: mean survival time, dose: 400.0 mg/kg/injection, schedule: Q04DX003 (ip), vehicle: saline with Tween-80
[4] = endpoint: mean survival time, dose: 25.0 mg/kg/injection, schedule: Q04DX003 (ip), vehicle: saline with Tween-80
[5] = endpoint: mean survival time, dose: 100.0 mg/kg/injection, schedule: Q01DX009 (ip), vehicle: saline with Tween-80
[6] = endpoint: mean survival time, dose: 200.0 mg/kg/injection, schedule: Q01DX009 (ip), vehicle: saline with Tween-80
[7] = endpoint: mean survival time, dose: 400.0 mg/kg/injection, schedule: Q01DX009 (ip), vehicle: saline with Tween-80

SMILES: CC(C)(C)CC(C)(C)c1ccc(O)c(Cl)c1
- T/C [1]: 96 % of control
- T/C [2]: 100 % of control
- T/C [3]: 106 % of control

SMILES: S=C1SC2CCCCC2S1 (stereo not drawn)
- T/C (endpoint: mean survival time, dose: 100.0 mg/kg/injection, schedule: Q01DX001 (ip), vehicle: Klucel (hydroxypropylcellulose) (HPC)): 104 % of control
- T/C (endpoint: mean survival time, dose: 200.0 mg/kg/injection, schedule: Q01DX001 (ip), vehicle: Klucel (hydroxypropylcellulose) (HPC)): 107 % of control
- T/C (endpoint: mean survival time, dose: 400.0 mg/kg/injection, schedule: Q01DX001 (ip), vehicle: Klucel (hydroxypropylcellulose) (HPC)): 98 % of control

SMILES: CCN(CC)C(=S)SCc1c(Cl)c(Cl)c(Cl)c(Cl)c1Cl
- T/C (endpoint: mean survival time, dose: 100.0 mg/kg/injection, schedule: Q04DX002 (ip), vehicle: saline with Tween-80): 94 % of control
- T/C (endpoint: mean survival time, dose: 200.0 mg/kg/injection, schedule: Q04DX002 (ip), vehicle: saline with Tween-80): 91 % of control
- T/C (endpoint: mean survival time, dose: 400.0 mg/kg/injection, schedule: Q04DX002 (ip), vehicle: saline with Tween-80): 97 % of control

SMILES: O=C(Cc1ccc([N+](=O)[O-])cc1)Nc1ccc(S(=O)(=O)F)cc1
- T/C (endpoint: mean survival time, dose: 100.0 mg/kg/injection, schedule: Q01DX001 (ip), vehicle: saline): 96 % of control
- T/C (endpoint: mean survival time, dose: 200.0 mg/kg/injection, schedule: Q01DX001 (ip), vehicle: saline): 103 % of control
- T/C (endpoint: mean survival time, dose: 400.0 mg/kg/injection, schedule: Q01DX001 (ip), vehicle: saline): 100 % of control

SMILES: CC(=Nc1ccccc1)c1ccc2ccccc2c1
- T/C [1]: 98 % of control
- T/C [2]: 93 % of control
- T/C [3]: 97 % of control

SMILES: COC(=O)c1ccccc1N1C(=O)C=CC1=O
- T/C (endpoint: mean survival time, dose: 12.5 mg/kg/injection, schedule: Q04DX003 (ip), vehicle: saline with Tween-80): 98 % of control
- T/C [4]: 89 % of control

SMILES: O=C(OCc1ccccc1)c1ccccc1
- T/C (endpoint: mean survival time, dose: 100.0 mg/kg/injection, schedule: Q04DX002 (ip), vehicle: Klucel (hydroxypropylcellulose) (HPC)): 90 % of control
- T/C (endpoint: mean survival time, dose: 200.0 mg/kg/injection, schedule: Q04DX002 (ip), vehicle: Klucel (hydroxypropylcellulose) (HPC)): 100 % of control
- T/C (endpoint: mean survival time, dose: 400.0 mg/kg/injection, schedule: Q04DX002 (ip), vehicle: Klucel (hydroxypropylcellulose) (HPC)): 90 % of control

SMILES: CCOC(=O)/C(O)=C\c1cc(OC)nnc1Cl
- T/C (endpoint: mean survival time, dose: 12.5 mg/kg/injection, schedule: Q04DX002 (ip), vehicle: saline with Tween-80): 114 % of control
- T/C (endpoint: mean survival time, dose: 25.0 mg/kg/injection, schedule: Q04DX002 (ip), vehicle: saline with Tween-80): 101 % of control
- T/C (endpoint: mean survival time, dose: 50.0 mg/kg/injection, schedule: Q04DX002 (ip), vehicle: saline with Tween-80): 101 % of control

SMILES: CC(C)C1=CC2=C(CC1)C1(C)CCCC(C)(C(=O)O)C1CC2 (stereo not drawn)
- T/C [5]: 98 % of control
- T/C [1]: 104 % of control
- T/C [6]: 96 % of control
- T/C [2]: 98 % of control
- T/C [7]: 89 % of control
- T/C [3]: 93 % of control

SMILES: CC(=O)NC(C)C1(O)CCCCC1 (stereo not drawn)
- T/C (endpoint: mean survival time, dose: 100.0 mg/kg/injection, schedule: Q04DX003 (ip), vehicle: saline): 100 % of control
- T/C (endpoint: mean survival time, dose: 200.0 mg/kg/injection, schedule: Q04DX003 (ip), vehicle: saline): 97 % of control
- T/C (endpoint: mean survival time, dose: 400.0 mg/kg/injection, schedule: Q04DX003 (ip), vehicle: saline): 94 % of control

SMILES: CCc1cc(C)cc(OC(=O)Nc2ccc(Cl)cc2)c1
- T/C [5]: 93 % of control
- T/C [1]: 107 % of control
- T/C [6]: 100 % of control
- T/C [2]: 93 % of control
- T/C [7]: 96 % of control
- T/C [3]: 91 % of control

SMILES: C(=N/NC1=NCCN1)/c1c2ccccc2c(/C=N\NC2=NCCN2)c2ccccc12
- T/C (endpoint: median survival time, dose: 0.37 mg/kg/injection, schedule: Q01DX009 (ip), vehicle: suspension in saline): 152 % of control
- T/C (endpoint: median survival time, dose: 1.56 mg/kg/injection, schedule: Q01DX009 (ip), vehicle: saline): 170 % of control
- T/C (endpoint: median survival time, dose: 3.0 mg/kg/injection, schedule: Q01DX009 (ip), vehicle: suspension in saline): 172 % of control
- T/C (endpoint: median survival time, dose: 3.12 mg/kg/injection, schedule: Q01DX009 (ip), vehicle: saline): 370 % of control
- T/C (endpoint: median survival time, dose: 6.25 mg/kg/injection, schedule: Q01DX009 (ip), vehicle: saline): 172 % of control
- T/C (endpoint: median survival time, dose: 12.5 mg/kg/injection, schedule: Q01DX009 (ip), vehicle: saline): 164 % of control and 180 % of control
- T/C (endpoint: median survival time, dose: 25.0 mg/kg/injection, schedule: Q01DX009 (ip), vehicle: saline): 176 % of control
- T/C (endpoint: median survival time, dose: 48.0 mg/kg/injection, schedule: Q01DX009 (ip), vehicle: suspension in saline): 113 % of control

SMILES: O=S(Nc1ccccc1)Nc1ccccc1
- T/C [5]: 95 % of control
- T/C [1]: 97 % of control
- T/C [2]: 94 % of control
- T/C [3]: 97 % of control

SMILES: Cc1cc(C)nc(C)c1.[Cl-].[Cl-].[Cl-].[Cl-].[Pt+2]
- T/C [4]: 98 % of control
- T/C (endpoint: mean survival time, dose: 50.0 mg/kg/injection, schedule: Q04DX003 (ip), vehicle: saline with Tween-80): 101 % of control
- T/C [1]: 103 % of control
